Tested on: Pseudoxanthomonas taiwanensis biofilm
Experiment: Biofilm test in 96-microwell plates with peg lids, Crystal Violet quantification
Assay type: cell-based
Conditions: for Impact (biofilm reduction percentage vs no added chemicals): 45° C., 150 rpm
Source text: Authentic cooling water was obtained from a cooling water system in Germany. Proteobacteria are commonly found from cooling waters (Water Research 159 (2019): 464-479). In the biofilm-experiments the test water was spiked with Pseudoxanthomonas taiwanensis, a biofilm-forming species belonging to the phylum Proteobacter. Biofilm tests were done in simulated cooling water, SCW (prepared according to Marziya Rizvi et al., Nature Scientific Reports | (2021) 11:8353) using 96-microwell plate wells with peg lids (Thermo Fischer Scientific Inc., USA). Plates were incubated at 45° C. with a rotary shaking (150 rpm) providing high flow in each well. Wells of 96-microwell plates with peg-lids were filled with 10% authentic cooling water, 89% SCW and 1% of pure culture of Pseudoxanthomonas taiwanensis. Biofilm was grown at 45° C. with a rotary shaking (150 rpm) for 24 hours without addition of any chemical compound to be tested. After 24 hours from starting the test, the wells were emptied and a fresh solution comprising 10% authentic cooling water, 89% SCW and 1% of pure culture of Pseudoxanthomonas taiwanensis with different amounts of chemical compounds to be tested were added and the original peg-lid was placed back in place. After an additional 24 hours the wells were emptied and the biofilm amount on the pegs was quantified. The amount of biofilm formed on the peg surfaces was quantified with a staining solution by adding 200 μl of 1% Crystal Violet (Merck Millipore KGaA, Germany) in methanol to each well in a clean 96-well plate and placing the biofilm-containing peg-lid on it. After 3 minutes the wells were emptied and the wells and pegs were rinsed 3 times with tap water. Finally the peg-lid was placed in a clean 96-well plate, the attached Crystal Violet was dissolved into ethanol and the absorbance at 595 nm was measured. All parts per million (ppm) amounts given in Example 1 are as active ingredients. The Impact values are calculated as biofilm reduction percentages based on a comparison with no added chemicals. A positive value indicates a reduction in amount of biofilm whereas a negative value indicates an increase in the amount of biofilm. […] Biofilm was stained and quantified by absorbance measurement. Dosages are given as active ingredients.

Cc1ccc(S(=O)(=O)C=CC#N)cc1 [Compound A, 3-[(4-methylphenyl)sulphonyl]-2-propenenitrile]
Impact (biofilm reduction percentage vs no added chemicals) (Compound A 0.15 ppm alone, 24 h, negative = increase): −19%
Impact (biofilm reduction percentage vs no added chemicals) (Compound A 0.30 ppm alone, 24 h): 2%
Impact (biofilm reduction percentage vs no added chemicals) (Compound A 0.45 ppm alone, 24 h): 8%

OCl [Sodium hypochlorite]
Impact (biofilm reduction percentage vs no added chemicals) (Sodium hypochlorite 2 ppm alone, authentic cooling water+SCW+P. taiwanensis, 24 h on pre-grown biofilm, negative = increase): −30%
Impact (biofilm reduction percentage vs no added chemicals) (Sodium hypochlorite 4 ppm alone, 24 h, negative = increase): −27%
Impact (biofilm reduction percentage vs no added chemicals) (Sodium hypochlorite 8 ppm alone, 24 h, negative = increase): −25%
Impact (biofilm reduction percentage vs no added chemicals) (Sodium hypochlorite 12 ppm alone, 24 h, negative = increase): −10%
Impact (biofilm reduction percentage vs no added chemicals) (Sodium hypochlorite 16 ppm alone, 24 h): 6%
Dosage required to reach noticeable biofilm reduction efficacy (Sodium hypochlorite on its own, as active compound): 16 ppm
